From US7615628B2, “Imidazopyridine derivatives” (Riken, priority 2005, dated 2009)

What was measured:
[1] = system: human fetal lung fibroblast (normal diploid fibroblast) WI-38 cells; experiment: MTT assay, cell growth inhibitory activity on normal cells; assay type: cell-based; conditions: 72 hours incubation at 37° C., WI-38 normal cells, value ± standard deviation
Experimental: MTT assay was performed to examine two test compounds, i.e., 7-(2-thienyl)-3-(2-deoxy-1-β-D-ribofuranosyl)-3H-imidazo[4,5-b]pyridine (herein referred to as Compound IA) and 5-amino-7-(2-thienyl)-3-(2-deoxy-1-β-D-ribofuranosyl)-3H-imidazo[4,5-b]pyridine (herein referred to as Compound IB) for their cell growth inhibitory effect on cultured human fibrosarcoma HT-1080 cells and human fetal lung fibroblast (normal diploid fibroblast) WI-38 cells. These cells (1×10^4 cells/ml) were seeded in 96-well microplates (IWAKI) at 90 μl/well. After culturing at 37° C. for 3 to 4 hours, test compound solutions (10 μl each), which had been dissolved in PBS-5% DMSO and adjusted to various concentrations, were added and incubated at 37° C. for 72 hours. […] After incubation was continued at 37° C. for 16 hours, the absorbance at 570 nm was measured using a microplate reader to calculate % inhibition according to the following equation. % Inhibition=100×[1−(Abssample−Absbackground)/(Absnegative control−Absbackground)] […]
(§1) Abssample: Absorbance in the presence of test compound
(§2) Absbackground: Absorbance in the absence of cells and test compound
Absnegative control: Absorbance in the absence of test compound […]

[2] = system: cultured human fibrosarcoma HT-1080 cells; experiment: MTT assay, cell growth inhibitory activity on cancer cells; assay type: cell-based; conditions: for higher growth inhibitory activity on cancer cells than on normal cells: HT-1080 cancer cells versus WI-38 normal cells, from IC50 values; for IC50: Homo sapiens, MTT assay, 72 hours incubation at 37° C., HT-1080 cells, value ± standard deviation
Experimental: MTT assay was performed to examine two test compounds, i.e., 7-(2-thienyl)-3-(2-deoxy-1-β-D-ribofuranosyl)-3H-imidazo[4,5-b]pyridine (herein referred to as Compound IA) and 5-amino-7-(2-thienyl)-3-(2-deoxy-1-β-D-ribofuranosyl)-3H-imidazo[4,5-b]pyridine (herein referred to as Compound IB) for their cell growth inhibitory effect on cultured human fibrosarcoma HT-1080 cells and human fetal lung fibroblast (normal diploid fibroblast) WI-38 cells. These cells (1×10^4 cells/ml) were seeded in 96-well microplates (IWAKI) at 90 μl/well. After culturing at 37° C. for 3 to 4 hours, test compound solutions (10 μl each), which had been dissolved in PBS-5% DMSO and adjusted to various concentrations, were added and incubated at 37° C. for 72 hours. To the wells containing these solutions, a PBS solution of MTT (5 mg/ml) was added in 25 μl volumes and incubated at 37° C. for an additional 2 hours, followed by addition of a 50% DMF-20% SDS solution in 100 μl to each well. After incubation was continued at 37° C. for 16 hours, the absorbance at 570 nm was measured using a microplate reader to calculate % inhibition according to the following equation. % Inhibition=100×[1−(Abssample−Absbackground)/(Absnegative control−Absbackground)] [Expression 2]
as §1, §2
Absnegative control: Absorbance in the absence of test compound
The concentration (IC50 μM) required for each test compound to cause 50% inhibition of cell growth was calculated from a concentration-inhibition curve. The IC50 values are shown in Table 1 below, along with their standard deviation.

Compound | IC50 [1] | higher growth inhibitory activity on cancer cells than on normal cells [2] | IC50 [2]
Nc1cc(-c2cccs2)c2ncn([C@H]3C[C@@H](O)[C@@H](CO)O3)c2n1 [Compound IB, 5-amino-7-(2-thienyl)-3-(2-deoxy-1-β-D-ribofuranosyl)-3H-imidazo[4,5-b]pyridine] | 330 ± 40 µM | about 10 fold | 34 µM
OC[C@H]1O[C@@H](n2cnc3c(-c4cccs4)ccnc32)C[C@H]1O [Compound IA, 7-(2-thienyl)-3-(2-deoxy-1-β-D-ribofuranosyl)-3H-imidazo[4,5-b]pyridine] | 290 ± 130 µM | about 5 fold | 62 µM
